Like-named read-outs stand apart in the source and are kept apart here.
Columns and labels:
SERT [1] = biological target: T1, SERT (Homo sapiens, UniProt P31645); assay: Transporter electrophysiology (whole cell patch clamp), HEK293 cells stably expressing SERT; assay type: cell-based; conditions: compound applied at 30 µM, -60 mV
T1 construct: expressed in transfected cells
Procedure: (§1) Human embryonic kidney 293 cells (HEK293 cells) were cultivated in Dulbecco’s Modified Eagle Medium (DMEM), containing 10% heat-in- activated fetal calf serum (FCS), streptomycin (100 μg x 100 ml−1) and penicillin (100 U × 100 ml−1). Geneticin (50 μg x mL−1) was added to select HEK293 cells stably expressing the human isoforms of DAT, NET and SERT as described earlier ([Mayer et al., 2016a]). Cell lines were maintained in a sub-confluent state in humidified atmosphere (37°C, 5% CO2). For uptake inhibition experiments cells expressing the desired transporter were seeded the days before the experiment (40,000 cells per well) or two days before the experiments (20,000 cells per well) onto poly-D-lysine (PDL) coated 96-well plates 24 h prior to the experiment. In the case of transporter-electrophysiology cells were cultivated in 10 cm dishes and 24 h before the experiments they were detached, and seeded at low density onto PDL-coated 3 cm dishes.
(§2) Transporter electrophysiology was conducted by the means of whole cell patch clamp in HEK293 cells stably expressing DAT or SERT. Substrate-induced currents were recorded under voltage clamp (−60 mV). Cells were continuously superfused with a physiological external solution that contains 140 mM NaCl, 2.5 mM CaCl2, 2 mM MgCl2, 20 mM glucose and 10 mM HEPES, pH = 7.4. The pipette solution contained 133 mM potassium gluconate, 6 mM NaCl, 1 mM CaCl2, 0.7 mM MgCl2, 10 mM HEPES, 10 mM EGTA, pH = 7.2. Currents elicited by mephedrone 30 μM, were measured at room temperature (20–24°C) using an […] amplifier and pClamp 11.2 software (MDS Analytical Technologies). All the solutions perfused onto the cell were applied using a DAD-12 superfusion system and a 8-tube perfusion manifold (ALA Scientific Instruments), which allowed for rapid solution exchange. Current traces were filtered at 1 kHz and digitized at 10 kHz using a Digidata 1,550 (MDS Analytical Technologies). […] For the analysis, passive holding currents were subtracted, and the traces were filtered using a 100-Hz digital Gaussian low-pass filter.

SERT [2] = biological target: T1, SERT; assay: Uptake-inhibition of [3H]5-HT in HEK293 cells stably expressing human SERT; assay type: cell-based
human NET = biological target: T2, human NET (Homo sapiens, UniProt P23975); assay: cell-based; conditions: for IC50: mean (95% confidence interval), non-linear regression, read-out: IC50 (µM) NET
T2 construct: expressed in transfected cells

DAT [3] = biological target: T3, DAT (Homo sapiens, UniProt Q01959); assay: Transporter electrophysiology (whole cell patch clamp), HEK293 cells stably expressing DAT; assay type: cell-based; conditions: compound applied at 30 µM, -60 mV
T3 construct: expressed in transfected cells
Procedure: as §1, §2

DAT [4] = biological target: T3, DAT; assay: cell-based
[5] = LC-MS/MS detection of mephedrone metabolites in a human urine sample; assay type: in vivo; design: key to Detected in urine samples: detected (+); not detected (−); conditions: for Detected in urine samples: human urine, mephedrone user, only syn- and anti-configurations could be separated
Description: The biological specimen, human urine, was provided by the Department of Chemical Analytics, Seibersdorf Laboratories GmbH. The sample was taken from a subject postmortem in a fatal case of drug overdose. […] Given this fact, we assumed that also the metabolites would be detectable in sufficient quantity. To evaluate the presence of any metabolites whatsoever in the urine sample we designed an achiral separation protocol for liquid chromatography and we coupled it with triple quadrupole mass spectrometer. The advantage of LC-MS/MS system is that even if two substances have the same retention time, they can still be differentiated by their fragmentation pattern. More in details, the samples for urine analysis were analyzed using a CTC HTS PAL autosampler (CTC Analytics) and a Thermo Surveyor LC system (Thermo) interfaced to a TSQ Quantum Discovery Max triple quadrupole mass spectrometer (Thermo). A C18 security guard cartridge (4 × 2 mm) (Phenomenex) was used for sample clean-up and the analytical HPLC column was a Kinetex 1.7 μm C18 100Å 150 × 2.1 mm (Phenomenex) and Cortecs T3, 2.7 μm C18 120Å 100 × 2.1 mm (Waters). Column selection was performed by a Maylab Mistraswitch column selector (Maylab Analytical Instruments). The solvents were 0.2% formic acid in water (A) and acetonitrile (B). The temperature of the analytical column was maintained at 40°C. The mass spectrometer was equipped with heated electrospray ionization (ESI) source and was operated in positive ionization mode with a spray voltage set at 4500V. The capillary temperature was adjusted to 320°C. The sheath and auxiliary gas (nitrogen) flow rate was 25 and 10 arbitrary units, respectively. The system was operated in selected […] (srm) mode with argon as the collision gas at a pressure of 1.5 mTorr. For the achiral separation, stem solutions were prepared by weighing the reference substances in volumetric flasks and filling them up with MeOH (99.9%; HPLC grade), creating average concentration of 1 mg/ml. Then dilution solutions were prepared as follows: 10 μL of stem solution was filled up to 5 ml MeOH, creating dilution […]. Samples were prepared from dilution solutions by taking out 25 μL and mixing it together with 25 μL of ISP, 50 μL ISS and filled up to 1 ml with Milli-Q water. The final sample solvent was water/MeOH 9/1. For the enzymatic workup, phosphate buffer (1 ml, 0.8M, pH = 7), β-glucuronidase/arylsulfatase (25 μL) and β-glucuronidase (25 μL) were added to the solutions. The solutions were heated at 50°C during 1 h upon which EtOAc (7 ml) was added. The solution was put into shaker for 10min, following centrifugation for 5 min. The organic phase was separated and evaporated into dryness in stream of pressurized nitrogen. The residue was taken up in 150 μL MQ-water/MeOH 9/1 + 0.4% formic acid, heated at 50°C for 5 min and subjected to LC-MS analysis.
If on one hand the synthesis of putative metabolites allows the establishment of structure activity relationships, on the other hand, it provides pure material to evaluate their presence in human urine samples and determine their pharmacological relevance. To determine the presence of any metabolites in the urine sample, we have designed an achiral separation protocol and coupled the liquid chromatography with triple quadrupole mass spectrometer (LCMS/MS). With the LCMS/MS system two substances with the same retention time, can still be differentiated by their fragmentation pattern. Since metabolites carrying a primary alcohol functionality can form glucuronide and sulfate conjugates, we performed an enzymatic workup of the urine sample in order to cleave them. Apart from the parental drug, we detected 4-OH-MMC and 4-MC (nor-meph) which we have both already identified in our previous publication ([Mayer et al., 2019]), and the two previously uncharacterized metabolites 4-COOH-MC and dihydro-4-MC (Figure 6). […]

[6] = IC50 (µM) SERT, mean (95% confidence interval), non-linear regression
[7] = IC50 SERT, QSAR data matrix, unit inferred
[8] = QSAR data matrix, from IC50 DAT, read-out: pIC50 DAT (converted)
[9] = mean (95% confidence interval), non-linear regression, read-out: IC50 (µM) DAT
[10] = QSAR data matrix, unit inferred, read-out: IC50 SERT
[11] = mean (95% confidence interval), non-linear regression, read-out: IC50 (µM) SERT

T2 sequence (P23975 whole entry): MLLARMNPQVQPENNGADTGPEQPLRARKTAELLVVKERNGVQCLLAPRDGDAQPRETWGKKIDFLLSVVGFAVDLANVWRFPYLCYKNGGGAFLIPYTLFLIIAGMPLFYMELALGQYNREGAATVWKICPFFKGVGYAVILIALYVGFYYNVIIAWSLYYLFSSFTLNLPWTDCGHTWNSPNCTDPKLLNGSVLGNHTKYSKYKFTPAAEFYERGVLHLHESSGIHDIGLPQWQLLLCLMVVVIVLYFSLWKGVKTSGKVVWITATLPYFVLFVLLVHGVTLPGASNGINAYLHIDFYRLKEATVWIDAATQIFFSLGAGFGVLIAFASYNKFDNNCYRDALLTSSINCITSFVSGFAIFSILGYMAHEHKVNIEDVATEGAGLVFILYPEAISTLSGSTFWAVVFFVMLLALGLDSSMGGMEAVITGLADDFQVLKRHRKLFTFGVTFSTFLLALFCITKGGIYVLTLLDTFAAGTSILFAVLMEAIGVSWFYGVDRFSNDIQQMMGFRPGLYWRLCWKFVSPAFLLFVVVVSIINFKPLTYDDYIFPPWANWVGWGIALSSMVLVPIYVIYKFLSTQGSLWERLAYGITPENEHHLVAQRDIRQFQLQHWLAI
T3 sequence (Q01959 whole entry): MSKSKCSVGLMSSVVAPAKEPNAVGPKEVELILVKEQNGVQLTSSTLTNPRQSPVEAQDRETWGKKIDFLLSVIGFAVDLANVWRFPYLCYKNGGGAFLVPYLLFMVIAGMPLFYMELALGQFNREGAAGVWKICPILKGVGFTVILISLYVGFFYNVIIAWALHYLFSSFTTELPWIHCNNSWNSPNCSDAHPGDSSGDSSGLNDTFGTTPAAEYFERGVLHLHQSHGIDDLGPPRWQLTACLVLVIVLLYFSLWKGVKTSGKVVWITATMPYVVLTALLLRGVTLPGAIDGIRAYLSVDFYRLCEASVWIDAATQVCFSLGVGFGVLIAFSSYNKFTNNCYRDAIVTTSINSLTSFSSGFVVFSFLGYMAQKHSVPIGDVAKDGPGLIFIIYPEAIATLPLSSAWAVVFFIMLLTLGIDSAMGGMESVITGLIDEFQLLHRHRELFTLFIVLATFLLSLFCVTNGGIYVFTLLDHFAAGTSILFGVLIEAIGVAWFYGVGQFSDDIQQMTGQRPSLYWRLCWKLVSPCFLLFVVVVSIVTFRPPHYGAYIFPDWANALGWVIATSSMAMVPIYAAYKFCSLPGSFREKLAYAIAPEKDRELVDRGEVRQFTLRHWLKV
T1 sequence (P31645 whole entry): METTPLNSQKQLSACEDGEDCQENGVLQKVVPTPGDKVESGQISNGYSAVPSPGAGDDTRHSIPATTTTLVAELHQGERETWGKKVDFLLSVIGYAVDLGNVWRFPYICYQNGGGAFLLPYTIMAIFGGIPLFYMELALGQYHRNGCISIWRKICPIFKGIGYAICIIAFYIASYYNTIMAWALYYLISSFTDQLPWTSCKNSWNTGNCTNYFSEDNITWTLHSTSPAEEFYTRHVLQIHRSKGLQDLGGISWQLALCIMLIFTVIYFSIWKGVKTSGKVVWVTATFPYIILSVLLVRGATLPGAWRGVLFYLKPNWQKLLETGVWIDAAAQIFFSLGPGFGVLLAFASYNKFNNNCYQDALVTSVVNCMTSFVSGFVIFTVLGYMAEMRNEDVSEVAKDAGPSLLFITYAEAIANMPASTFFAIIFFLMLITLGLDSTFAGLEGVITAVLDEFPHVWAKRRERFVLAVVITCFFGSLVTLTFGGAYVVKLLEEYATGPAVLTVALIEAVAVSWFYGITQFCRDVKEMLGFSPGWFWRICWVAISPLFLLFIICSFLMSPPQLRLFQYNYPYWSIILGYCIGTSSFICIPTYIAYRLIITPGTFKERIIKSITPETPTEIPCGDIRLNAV

Compound | SERT-mediated current (SERT [1]) | IC50 (SERT [2]; [6]) | IC50 (SERT [2]; [7]) | Selectivity ratio NET/DAT (human NET) | IC50 (human NET) | DAT-mediated current (DAT [3]) | Selectivity ratio DAT/SERT (DAT [4]) | IC50 (DAT [4]; [8]) | IC50 (DAT [4]; [9]) | Detected in urine samples [5] | IC50 (SERT [2]; [10]) | IC50 (SERT [2]; [11]) | DAT-mediated current (DAT [3]; listed as dihydro-(R,R)-4-MC) | DAT-mediated current (DAT [3]; listed as dihydro-(R,R)-4 MC) | detection in human urine sample ([5]; achiral LC-MS/MS, after enzymatic workup)
Cc1ccc([C@@H](O)[C@H](C)N)cc1 [Dihydro-(R,S)-4-MC] | elicited only SERT-mediated currents | 66.9 µM | 66.9 µM | 0.42 | 32.4 µM | elicited only SERT-mediated currents | 4.94 | 13.5 µM | 13.5 µM | + |  |  |  |  | 
C[C@H](N)[C@H](O)c1ccc(CO)cc1 [Dihydro-(R,S)-4-OH-MC] |  |  |  | 1.60 | 62 µM |  | 3.86 | 100 µM | 99.1 µM | − | 383 µM | 383 µM |  |  | 
Cc1ccc([C@@H](O)[C@@H](C)N)cc1 [Dihydro-(R,R)-4-MC] | elicited only SERT-mediated currents | 74.6 µM | 74.6 µM | 0.44 | 18.1 µM |  | 9.26 | 8.13 µM | 8.05 µM | + |  |  | absence of DAT-mediated current | elicited only SERT-mediated currents | 
Cc1ccc([C@H](O)[C@H](C)N)cc1 [Dihydro-(S,S)-4-MC] | elicited only SERT-mediated currents | 32.2 µM | 32.2 µM | 2.37 | 9.51 µM | elicited only SERT-mediated currents | 1.42 | 22.4 µM | 22.6 µM | + |  |  |  |  | 
CNC(C)C(=O)c1ccc(CO)cc1.Cl (centres unmarked) [4-OH-MMC, 4-OH-mephedrone, reference compound] |  |  |  |  |  |  |  |  |  |  |  |  |  |  | detected
C[C@@H](N)[C@@H](O)c1ccc(CO)cc1 [Dihydro-(S,R)-4-OH-MC] |  |  |  | 1.09 | 83.4 µM |  | 12.68 | 91.2 µM | 91.2 µM | − |  | 1160 µM |  |  | 
CN[C@@H](C)[C@H](O)c1ccc(CO)cc1 [Dihydro-(R,S)-4-OH-MMC] |  |  |  | 1.57 | 53.9 µM |  | 5.87 | 85.1 µM | 84.5 µM | − | 496 µM | 496 µM |  |  | 
C[C@H](N)[C@@H](O)c1ccc(CO)cc1 [Dihydro-(S,S)-4-OH-MC] |  |  |  | 4.71 | 12.6 µM |  | 9.92 | 58.9 µM | 59.2 µM | − |  | 588 µM |  |  | 

— publication PMC8063026 (Frontiers in Pharmacology, 2021)
